Earlier results as cited in patent US20230404885A1, “EPIDERMAL STEM CELL PROLIFERATION-PROMOTING AGENT” (Shiseido Company, Ltd., priority 2020, published 2023).

Assays:
MMP-1 = biological target: T1, MMP-1 (Homo sapiens, UniProt P03956); settings: known
T1 sequence (P03956 100-469): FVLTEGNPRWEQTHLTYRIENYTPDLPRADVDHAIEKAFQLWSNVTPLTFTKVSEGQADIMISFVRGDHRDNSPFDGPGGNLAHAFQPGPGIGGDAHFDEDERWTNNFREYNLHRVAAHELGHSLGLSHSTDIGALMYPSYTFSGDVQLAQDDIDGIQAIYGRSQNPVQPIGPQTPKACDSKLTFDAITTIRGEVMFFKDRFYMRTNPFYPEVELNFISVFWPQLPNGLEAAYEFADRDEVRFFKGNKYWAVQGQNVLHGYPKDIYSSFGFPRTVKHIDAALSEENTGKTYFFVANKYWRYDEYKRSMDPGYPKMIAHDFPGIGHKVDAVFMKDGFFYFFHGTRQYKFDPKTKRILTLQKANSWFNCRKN

MMP-2 = biological target: T2, MMP-2 (Homo sapiens, UniProt P08253); settings: known
T2 sequence (P08253 110-660): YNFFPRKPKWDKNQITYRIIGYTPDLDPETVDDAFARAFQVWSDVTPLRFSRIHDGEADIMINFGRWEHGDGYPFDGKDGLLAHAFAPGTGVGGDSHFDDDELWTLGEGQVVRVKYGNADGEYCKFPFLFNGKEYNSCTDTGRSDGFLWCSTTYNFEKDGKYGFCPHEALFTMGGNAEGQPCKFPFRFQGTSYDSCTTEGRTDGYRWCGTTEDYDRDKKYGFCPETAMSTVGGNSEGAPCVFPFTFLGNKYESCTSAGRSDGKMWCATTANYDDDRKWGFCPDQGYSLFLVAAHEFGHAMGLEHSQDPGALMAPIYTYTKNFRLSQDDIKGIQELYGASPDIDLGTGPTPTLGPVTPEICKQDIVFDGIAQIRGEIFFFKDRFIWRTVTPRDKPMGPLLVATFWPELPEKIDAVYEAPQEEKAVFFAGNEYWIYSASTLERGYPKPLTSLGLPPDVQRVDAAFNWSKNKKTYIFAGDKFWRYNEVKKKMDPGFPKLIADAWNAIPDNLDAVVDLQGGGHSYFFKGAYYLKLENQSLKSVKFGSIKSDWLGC

heparanase = biological target: T3, heparanase (Homo sapiens, UniProt Q9Y251); settings: known, see JP 2014-111640
T3 sequence (Q9Y251 36-543): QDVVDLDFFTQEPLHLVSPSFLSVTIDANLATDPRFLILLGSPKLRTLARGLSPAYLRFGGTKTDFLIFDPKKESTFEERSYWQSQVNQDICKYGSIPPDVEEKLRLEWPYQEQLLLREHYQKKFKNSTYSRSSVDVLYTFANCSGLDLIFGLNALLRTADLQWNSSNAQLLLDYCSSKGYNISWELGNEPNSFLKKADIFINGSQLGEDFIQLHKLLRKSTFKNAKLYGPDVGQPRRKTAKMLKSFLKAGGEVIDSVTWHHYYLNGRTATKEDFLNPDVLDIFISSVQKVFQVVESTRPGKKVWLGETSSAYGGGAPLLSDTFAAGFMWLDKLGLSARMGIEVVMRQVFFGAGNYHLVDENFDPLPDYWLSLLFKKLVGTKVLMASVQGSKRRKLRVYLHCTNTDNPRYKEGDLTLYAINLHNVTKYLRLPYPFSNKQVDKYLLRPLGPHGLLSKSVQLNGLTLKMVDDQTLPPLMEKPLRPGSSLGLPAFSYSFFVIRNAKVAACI

MMP-9 = MMP-9 (Homo sapiens, UniProt P14780); settings: known
Chain of MMP-9 (P14780 94-707): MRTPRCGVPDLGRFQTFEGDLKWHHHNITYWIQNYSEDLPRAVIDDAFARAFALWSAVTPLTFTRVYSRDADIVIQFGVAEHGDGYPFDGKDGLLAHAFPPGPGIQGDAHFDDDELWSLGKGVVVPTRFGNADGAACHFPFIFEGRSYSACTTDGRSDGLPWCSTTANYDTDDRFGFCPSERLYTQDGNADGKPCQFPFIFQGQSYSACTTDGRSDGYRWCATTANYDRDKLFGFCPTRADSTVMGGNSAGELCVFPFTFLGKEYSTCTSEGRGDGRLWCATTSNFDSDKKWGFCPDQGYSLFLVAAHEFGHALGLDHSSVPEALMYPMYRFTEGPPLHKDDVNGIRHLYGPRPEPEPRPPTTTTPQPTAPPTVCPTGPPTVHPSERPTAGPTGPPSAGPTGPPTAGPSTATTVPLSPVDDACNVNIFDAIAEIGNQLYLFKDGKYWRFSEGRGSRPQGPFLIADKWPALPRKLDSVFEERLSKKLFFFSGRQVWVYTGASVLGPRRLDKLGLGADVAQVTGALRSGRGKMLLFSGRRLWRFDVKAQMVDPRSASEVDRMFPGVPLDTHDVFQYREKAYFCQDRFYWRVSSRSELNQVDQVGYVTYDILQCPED

In the case of O=C1NCCN1CCO [S173, 1-(2-hydroxyethyl)-2-imidazolidinone], the “effect on activity of MMP-1” value (MMP-1) is listed as “does not affect”, the “effect on activity of MMP-2” value (MMP-2) is listed as “does not affect” and the heparanase activity inhibition (heparanase) is listed as “inhibitors of the heparanase activity”. For the same compound, the MMP-9 inhibition (MMP-9) was “inhibits”.
